The text below walks through data of patent publication US8362023B2, “Pyrazolo pyrimidines” (Hoffmann-La Roche Inc., priority 2011, dated 2013).

Counter-ions that a name gives are not always drawn.

Test [1] deals with SW620 human colon cancer cells. As to the kind of experiment: SW620 Cell Viability Assay. The settings on record: SW-620, 96 h, CellTiter-Glo Luminescent Cell Viability Assay, 4 days incubation, read-out: Cellular EC50 (μM) SW620. In kind it is cell-based. As for the experimental part:
SW620 Cell Viability Assay
1. Cell Plate Preparation: SW620 human colon cancer cells (known to express DYRK1B), obtained from ATCC, were seeded into 96-well plates at 3×10^3 cells/well in 50 μL of media. • Harvested the required number of cells (counts & viability determined by Guava Viacount). • Centrifuge cells to pellet and removed supernant. • Resuspended in growth media (50 μL/well) & pipetted thoroughly to break up clumps. • Setup for ˜100 wells/plate, therefore, VT=5 mL/plate @ […].
1A. Some cells (S—) were allowed to attach for 24 hrs, serum starved for 48 hrs, and then followed with test compound treatments.
Test compound solution were prepared in regular corresponding media supplemented with serum.
2. Test compound Preparation: Drugs were solubilized in either DMSO or media and prepared at various stock concentrations. • All compounds were incubated at 37° C. for 30 minutes and vortexed. • (5 mM stocks of test compound were prepared for non-soluble test compounds)
3. Test compound Plate Preparation: • The 10 mM test compound stock was diluted to a concentration of 100× the final Cmax concentration. • Then the test compound stock is diluted 50-fold in media and/or second test compound for a final Cmax concentration in the test compound plate. • The Cmax in the test compound plate (2% DMSO) is 2-fold higher than the final Cmax in the cell plate (60 μl, titrations were 1:3).
4. Viability Assay: This assay was performed as follows: • Transfer 50 μL of test compound solution per well from the test compound plate onto the cell plate prepared in Step #1. • Mix the plate with treated cells by pipetting up and down three times with 200 μL multi-channel pipette. • Incubate the cells in 5% CO2 incubator @ 37° C. for 4 days. • Run the CellTiter-Glo™ Luminescent Cell Viability Assay.
The results of this assay, given as EC50 values, indicate the concentration of test compound that inhibits tumor cell proliferation by 50%.
On the technique in general: Cellular ATP, detected with luciferase, serves as a proxy for viable cell number.

Another test concerns the target T1, Human DYRK1B (Homo sapiens, UniProt Q9Y463).
T1 construct: purchased Invitrogen PR8350B (former PV4649)
As to the kind of experiment: DYRK1B Kinase TR-FRET (IMAP-Tb) Assay. In kind it is biochemical. The conditions noted are these: TR-FRET (IMAP-Tb); ATP 70 μM; 37° C. for 60 minutes; averages of multiple runs; read-out: Enzyme IC50 (μM) DYRK1B. The text has this: DYRK1B Kinase TR-FRET (IMAP-Tb) Assay Assay Principle The kinase TR-FRET (IMAP-Tb) assay uses a fluorescence labeled substrate peptide in the kinase reaction. Upon phosphorylation by the kinase, phosphopeptide is produced, which will be detected by the binding solution provided in IMAP TR-FRET binding kit. After the completion of the kinase reaction, the reaction will be stopped by adding the binding solution containing terbium tracer. This tracer is immobilized on the surface of the IMAP beads, which also contain metal ions on the beads that bind to the phospho-groups of the products. Thus the phosphorylated product of the reaction can enter into close proximity to the tracer, producing resonance energy transfer. Due to the long lifetime of terbium (Tb) fluorescence the detection can be run in time resolved mode, which virtually eliminates fluorescence interference from assay components or compounds. The TR-FRET signal measurement from this assay, given as an IC50 measurement, is a measure of a test compound's ability to interfere with the phosphorylation of the peptide substrate, that is it inhibits the phosphorylation of the substrate peptide by DYRK1B, and is thus a measure of the test compound's ability to inhibit the activity of DYRK1B. IC50 is the amount of test compound that inhibits 50% of the activity of DYRK1B in this assay. In some cases where the IC50 was not determined, then the % inhibition at 10 μM test compound concentration may be reported. Materials and Reagents • 1. Human DYRK1B: from Invitrogen. Part #PR8350B (former PV4649) • 2. Substrate Peptide: in-house synthesized: RRRFRPASPLRGPPK • 3. IMAP TR-FRET IPP Explorer Kit: from Molecular Devices. Part #R8157 • 4. Kinase Assay Buffer (KAB): 10 mM HEPES pH 7.0, 50 mM NaCl, 5 mM MgCl2, 1 mM DTT, 1 mM NaVO4, 200 μg/mL BSA (0.02%) • 5. Assay Plate: Remp polypropylene clear 384-well microplate. Cat#23490-102 • 6. Detection Plate: Costa black 384-well microplate. Cat #3710 Assay Procedure: this Assay was Performed as Follows: • 1. Transfer 1.5 μL of 20× compound solution to each well of an assay plate. • 2. Add to each well 22.5 μL of KAB Buffer. • 3. Add to each well 3 μL of the solution of DYRK1B and ATP. […] Add to each well 3 μL of the substrate peptide. The assay concentration is 1.0 μM • 5. Incubate the assay plates at 37° C. for 60 minutes. • 6. Add 18 μL of Detection Solution (1:800 diluted Progress bead stock, 1:400 diluted Tb stock, 80% Buffer A, and 20% Buffer B) into each well of detection plates. • 7. Transfer 6 μL of assay solution from the assay plate to the detection plate. • 8. Shake detection plates for 30 minutes. • 9. Read plates in Envision with wavelength set at excitation 340 nm for Tb, emission 490 nm, and […] 520 nm. • 10. Calculation: TR-FRET Signal=(Reading at […]/Reading at 490 nM)×2000000

A further test deals with T2, Human DYRK1A (Homo sapiens, UniProt Q13627).
T2 construct: purchased Invitrogen PV3997
As to the kind of experiment: DYRK1A Kinase TR-FRET (IMAP-Tb) Assay. The conditions noted are these: TR-FRET (IMAP-Tb); ATP 70 μM; 37° C. for 60 minutes; averages of multiple runs; read-out: Enzyme IC50 (μM) DYRK1A. In kind it is biochemical. The source says:
DYRK1A Kinase TR-FRET (IMAP-Tb) Assay
The kinase TR-FRET (IMAP-Tb) assay uses a fluorescence labeled substrate peptide in the kinase reaction. Upon phosphorylation by the kinase, phosphopeptide is produced, which will be detected by the binding solution provided in IMAP TR-FRET binding kit. After the completion of the kinase reaction, the reaction will be stopped by adding the binding solution containing terbium tracer. This tracer is immobilized on the surface of the IMAP beads, which also contain metal ions on the beads that bind to the phospho-groups of the products. Thus the phosphorylated product of the reaction can enter into close proximity to the tracer, producing resonance energy transfer. Due to the long lifetime of terbium (Tb) fluorescence the detection can be run in time resolved mode, which virtually eliminates fluorescence interference from assay components or compounds.
The TR-FRET signal measurement from this assay, given as an IC50 measurement, is a measure of a test compound's ability to interfere with the phosphorylation of the peptide substrate, that is it inhibits the phosphorylation of the substrate peptide by DYRK1A, and is thus a measure of the test compound's ability to inhibit the activity of DYRK1A.
Materials and Reagents • 1. Human DYRK1A: from Invitrogen. Part #PV3997 • 2. Substrate Peptide: […] • 3. IMAP TR-FRET IPP Explorer Kit: from Molecular Devices. Part #R8157 • 4. Kinase Assay Buffer (KAB): 10 mM HEPES pH 7.0, 50 mM NaCl, 5 mM MgCl2, 1 mM DTT, 1 mM NaVO4, 200 ug/mL BSA (0.02%) • 5. Assay Plate: Remp polypropylene clear 384-well microplate. […] Detection Plate: Costa black 384-well microplate.
Assay Procedure: this Assay was Performed as Follows: • 1. Transfer 1.5 μL of 20× compound solution to each well of an assay plate. • 2. Add to each well 22.5 μL of KAB Buffer. • 3. Add to each well 3 μL of the solution of DYRK1A and ATP. […] Add to each well 3 μL of the substrate peptide. The assay concentration is 1.0 μM • 5. Incubate the assay plates at 37° C. for 60 minutes. • 6. Add 18 μL of Detection Solution (1:800 diluted Progress bead stock, 1:400 diluted Tb stock, 80% Buffer A, and 20% Buffer B) into each well of detection plates. • 7. Transfer 6 μL of assay solution from the assay plate to the detection plate. • 8. Shake detection plates for 30 minutes. • 9. Read plates in Envision with wavelength set at excitation 340 nm for Tb, emission 490 nm, and […] 520 nm. • 10.
For orientation: Time-resolved FRET reads energy transfer from a long-lived donor to a nearby acceptor.

T1 sequence (Q9Y463 whole entry): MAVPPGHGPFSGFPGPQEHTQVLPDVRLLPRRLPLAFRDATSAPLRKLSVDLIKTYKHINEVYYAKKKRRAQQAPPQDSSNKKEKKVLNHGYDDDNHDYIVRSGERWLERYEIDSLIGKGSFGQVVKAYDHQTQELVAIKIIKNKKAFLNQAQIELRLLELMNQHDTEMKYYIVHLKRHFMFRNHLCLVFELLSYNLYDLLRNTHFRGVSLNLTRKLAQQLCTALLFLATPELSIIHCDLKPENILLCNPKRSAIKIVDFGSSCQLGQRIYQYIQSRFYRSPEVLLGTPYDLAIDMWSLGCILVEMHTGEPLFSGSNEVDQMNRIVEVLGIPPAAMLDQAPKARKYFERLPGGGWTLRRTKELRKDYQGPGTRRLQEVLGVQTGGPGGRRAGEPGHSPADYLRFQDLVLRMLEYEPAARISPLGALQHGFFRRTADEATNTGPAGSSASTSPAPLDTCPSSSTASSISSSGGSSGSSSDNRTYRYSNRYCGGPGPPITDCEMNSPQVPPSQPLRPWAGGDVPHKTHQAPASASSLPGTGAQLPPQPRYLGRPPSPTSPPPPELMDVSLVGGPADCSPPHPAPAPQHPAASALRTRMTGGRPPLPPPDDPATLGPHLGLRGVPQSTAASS

Take `N[C@H]1CC[C@H](Nc2ncc3c(-c4ccnc(NCc5ccc(Cl)cc5)n4)n[nH]c3n2)CC1` [Example 72, N-{3-[2-(4-Chloro-benzylamino)-pyrimidin-4-yl]-1H-pyrazolo[3,4-d]pyrimidin-6-yl}-cyclohexane-1,4-diamine; hydrochloride]: in test [1], the EC50 amounted to 0.056 µM. The IC50 at Human DYRK1B was determined as 0.009 µM; on Human DYRK1A, 0.013 µM.

With `Clc1ccccc1CNc1cccc(-c2n[nH]c3nc(NCCN4CCOCC4)ncc23)c1` [Example 57, {3-[3-(2-Chloro-benzylamino)-phenyl]-1H-pyrazolo[3,4-d]pyrimidin-6-yl}-(2-morpholin-4-yl-ethyl)-amine], the EC50 in test [1] is over 10 µM. Further, the results for the IC50 at Human DYRK1B and on Human DYRK1A were 1.55 µM and 2.62 µM, respectively.

As for `Clc1ccccc1CNc1nccc(-c2n[nH]c3nc(NCCN4CCOCC4)ncc23)n1` [Example 63, {3-[2-(2-Chloro-benzylamino)-pyrimidin-4-yl]-1H-pyrazolo[3,4-d]pyrimidin-6-yl}-(2-morpholin-4-yl-ethyl)-amine; hydrochloride], the EC50 in test [1] was 0.9 µM. The IC50 worked out at 0.0671 µM at Human DYRK1B and 0.0371 µM at Human DYRK1A.

Take `NCC(Nc1cccc(-c2n[nH]c3nc(N[C@H]4CC[C@H](N)CC4)ncc23)n1)c1ccccc1` (stereo partly drawn) [Example 74, N-{3-[6-(2-Amino-1-phenyl-ethylamino)-pyridin-2-yl]-1H-pyrazolo[3,4-d]pyrimidin-6-yl}-cyclohexane-1,4-diamine; hydrochloride]: the EC50 in test [1] is over 10 µM. Also, the values for the IC50 at Human DYRK1B and at Human DYRK1A were under 0.0046 µM and 0.0046 µM, respectively.

With `NCCC(Nc1nccc(-c2n[nH]c3nc(NCCN4CCOCC4)ncc23)n1)c1ccccc1` (stereo not drawn) [Example 81, N1-{4-[6-(2-Morpholin-4-yl-ethylamino)-1H-pyrazolo[3,4-d]pyrimidin-3-yl]-pyrimidin-2-yl}-1-phenyl-propane-1,3-diamine; hydrochloride], the EC50 in test [1] came out at 1.75 µM. The IC50 at Human DYRK1B was determined as 0.0944 µM; on Human DYRK1A, 0.112 µM.

Regarding `Clc1cccc(CNc2nccc(-c3n[nH]c4nc(NCCN5CCOCC5)ncc34)n2)c1` [Example 62, {3-[2-(3-Chloro-benzylamino)-pyrimidin-4-yl]-1H-pyrazolo[3,4-d]pyrimidin-6-yl}-(2-morpholin-4-yl-ethyl)-amine; hydrochloride], the EC50 in test [1] was over 10 µM. Moreover, the IC50 came to 0.0586 µM at Human DYRK1B and 0.0384 µM at Human DYRK1A.

For the compound `N[C@H]1CC[C@H](Nc2ncc3c(-c4ccnc(NCc5ccsc5)n4)n[nH]c3n2)CC1` [Example 66, N-(3-{2-[(Thiophen-3-ylmethyl)-amino]-pyrimidin-4-yl}-1H-pyrazolo[3,4-d]pyrimidin-6-yl)-cyclohexane-1,4-diamine; hydrochloride], the EC50 in test [1] is 0.04 µM. The results for the IC50 at Human DYRK1B and on Human DYRK1A were 0.0172 µM and 0.0148 µM, respectively.

With `N[C@H]1CC[C@H](Nc2ncc3c(-c4ccnc(NCc5ccccc5)n4)n[nH]c3n2)CC1` [Example 70, N-[3-(2-Benzylamino-pyrimidin-4-yl)-1H-pyrazolo[3,4-d]pyrimidin-6-yl]-cyclohexane-1,4-diamine; hydrochloride], the EC50 in test [1] was over 10 µM. The results for the IC50 on Human DYRK1B and at Human DYRK1A were 0.0125 µM and 0.0062 µM, respectively.

On to `Clc1cccc(CNc2cccc(-c3n[nH]c4nc(NCCN5CCOCC5)ncc34)n2)c1` [Example 47, {3-[6-(3-Chloro-benzylamino)-pyridin-2-yl]-1H-pyrazolo[3,4-d]pyrimidin-6-yl}-(2-morpholin-4-yl-ethyl)-amine], for which the EC50 in test [1] was over 10 µM. For the same compound, the IC50 at Human DYRK1B was 1.06 µM; on Human DYRK1A, 1.39 µM.

For `c1ccc(CNc2nccc(-c3n[nH]c4nc(NCCN5CCOCC5)ncc34)n2)cc1` [Example 61, [3-(2-Benzylamino-pyrimidin-4-yl)-1H-pyrazolo[3,4-d]pyrimidin-6-yl]-(2-morpholin-4-yl-ethyl)-amine; hydrochloride], the EC50 in test [1] is over 10 µM. In addition, the IC50 at Human DYRK1B is 0.0958 µM; on Human DYRK1A, 0.061 µM.

As to `N[C@H]1CC[C@H](Nc2ncc3c(-c4cccc(NCc5ccccc5Cl)c4)n[nH]c3n2)CC1` [Example 56, N-{3-[3-(2-Chloro-benzylamino)-phenyl]-1H-pyrazolo[3,4-d]pyrimidin-6-yl}-cyclohexane-1,4-diamine], the EC50 in test [1] came out at 4.1 µM. For the same compound, the IC50 at Human DYRK1B turned out to be 0.194 µM; at Human DYRK1A it was 0.346 µM.

Usually EC50 stands for the midpoint of the concentration-response curve. A word on the IC50: it is the concentration at which inhibition is half-maximal.
